Here are results for 22 compounds from paper PMC9435431, “Novel chemical entities inhibiting Mycobacterium tuberculosis growth identified by phenotypic high-throughput screening” (Scientific Reports, 2022).

Experiment [1] concerns M. tuberculosis MmpL3 F255L mutant strain. In kind it is cell-based, Mycobacterium tuberculosis.
In experiment [2] the test system is M. tuberculosis MmpL3 Y252S mutant strain. In kind it is cell-based, Mycobacterium tuberculosis.
For experiment [3], the system named is M. tuberculosis MmpL3 G253E mutant strain. The format is cell-based, Mycobacterium tuberculosis.
In experiment [4] the test system is M. tuberculosis MmpL3 Y252C mutant strain. The format is cell-based, Mycobacterium tuberculosis.
In another experiment the test system is M. tuberculosis. The format is cell-based.
The subject of experiment [5] is M. tuberculosis QcrB A396T mutant strain. The format is cell-based, Mycobacterium tuberculosis.

By IC90 is commonly meant the concentration needed for an effect of 90%. For `CNc1cc(-c2ccccn2)nc(-c2ccccn2)n1` [APDP-1], in experiment [1], the Fold change amounted to 0.9 and it took 9.2 µM to reach the 90% level (IC90).
The corresponding values for `Cc1nc(-c2ccccn2)nc(NCCNc2ccc(C(F)(F)F)cn2)c1Cl` [APDP-2] are 0.5 and 15 µM.
Take `Cc1nc(-c2ccccn2)nc(NCc2ccccc2)c1Cl` [APDP-3]: in experiment [1], the Fold change amounted to 3.5 and the IC90 turned out to be 22 µM.
The corresponding values for `O=C(Nc1nc2ccccc2s1)NC1C2CC3CC(C2)CC1C3` (stereo not shown) [HBU-1] are 1.4 and 6 µM.
On the same counts, the results for `CC1C(CNC(=O)Nc2ccccc2)CC2CC1C2(C)C` (stereo not shown) [HBU-2] are 8.0 and 39 µM.
On the same counts, the results for `CC(=O)c1ccc(NC(=O)NC(C)C23CC4CC(CC(C4)C2)C3)cc1` (stereo not shown) [HBU-3] are 2.4 and 71 µM.
Turning to `O=C(NCCc1ccc(Br)cc1)NC12CC3CC(CC(C3)C1)C2` [HBU-4], in experiment [1], the Fold change is > 8.3 and the IC90 is > 100 µM.
The corresponding values for `CC(NC(=O)Nc1nc(-c2ccc(Cl)cc2)cs1)C1CC2C=CC1C2` (stereo not shown) [HBU-5] are 0.5 and 6.9 µM.
As to `CCC1(N2CCC(c3ccccc3)CC2)CCCCC1` [Molecule 4PP-1, 1-(1-Ethyl-cyclohexyl)-4-phenyl-piperidine], the “MmpL3 Y252S MIC” value in experiment [2] is listed as 93 µM. Besides, the “MmpL3 G253E MIC” value in experiment [3] is on record as 91 µM. Moreover, in experiment [1], the Fold change is reported as 11, the 90% effect concentration (IC90) was 68 µM and the “MmpL3 F255L MIC” value amounted to 68 µM. The “MmpL3 Y252C MIC” value in experiment [4] worked out at 30 µM.
In the case of `O=C(O)C(F)(F)F.c1ccc2c(C3CCN(CC4CCCCC4)CC3)cccc2c1` [Molecule 4PP-31, 1-(Cyclohexylmethyl)-4-(1-naphthyl)piperidine; 2,2,2-trifluoroacetic acid], in experiment [1], the Fold change stood at 15 and the IC90 is 45 µM.
`O=C(O)C(F)(F)F.c1cc(C2CCN(CC3CCCCC3)CC2)ccn1` [Molecule 4PP-32, 4-[1-(Cyclohexylmethyl)-4-piperidyl]pyridine, 2,2,2-trifluoroacetic acid salt]: the frequency of resistance in the experiment on M. tuberculosis is listed as 7.35 × 10^−8.
In experiment [1], `CC(C)(C)CC(C)(C)N1CCC(c2ccccc2)CC1` [Molecule 4PP-44, 4-Phenyl-1-(1,1,3,3-tetramethyl-butyl)-piperidine] had a Fold change of 3.5 and an IC90 of 18 µM.
In the case of `O=C(NCCc1cccc(Br)c1)C1(c2cccc(Cl)c2)CCC1` [PCB-16, N-(3-bromophenethyl)-1-(3-chlorophenyl)cyclobutane-1-carboxamide], the “MmpL3 Y252S MIC” value in experiment [2] was 50 µM. For the same compound, the “MmpL3 G253E MIC” value in experiment [3] is on record as 75 µM. In experiment [1], the “MmpL3 F255L MIC” value is on record as 8.0 µM. Further, in experiment [4], the “MmpL3 Y252C MIC” value was 43 µM.
On the same counts, the results for `O=C(NCCc1cccc(Br)c1)C1(c2ccccc2Cl)CCC1` [PCB-17, N-(3-bromophenethyl)-1-(2-chlorophenyl)cyclobutane-1-carboxamide] are 87 µM, 28 µM, 9.0 µM and 94 µM.
Take `O=C(NCCc1cccc(Br)c1)C1(c2ccc(F)cc2)CCC1` [PCB-19, N-(3-bromophenethyl)-1-(4-fluorophenyl)cyclobutane-1-carboxamide]: in experiment [2], the “MmpL3 Y252S MIC” value came to 35 µM. Besides, the “MmpL3 G253E MIC” value in experiment [3] is 20 µM. For the same compound, the “MmpL3 F255L MIC” value in experiment [1] is recorded as 3 µM. The frequency of resistance in the experiment with M. tuberculosis is reported as 7.0 × 10^−8. Moreover, in experiment [4], the “MmpL3 Y252C MIC” value was found to be 45 µM.
The corresponding values for `O=C(NCCc1cccc(Br)c1)C1(c2ccccc2Br)CCC1` [PCB-21, N-(3-bromophenethyl)-1-(2-bromophenyl)cyclobutane-1-carboxamide] are > 100 µM, 41 µM, 22 µM, 5.26 × 10^−8 and 96 µM.
For the compound `Cc1ccccc1C1(C(=O)NCCc2cccc(Br)c2)CCC1` [PCB-23, N-(3-bromophenethyl)-1-(o-tolyl)cyclobutane-1-carboxamide], the “MmpL3 Y252S MIC” value in experiment [2] came to 82 µM. Further, the “MmpL3 G253E MIC” value in experiment [3] is listed as 27 µM. The “MmpL3 F255L MIC” value in experiment [1] was 8.0 µM. In experiment [4], the “MmpL3 Y252C MIC” value is 83 µM.
Consider `Cc1ccc(-c2nnc(C)c(N3CCCC3)n2)cc1` [PYT], for which, in experiment [5], the Fold-change is given as 5.8, the 90% effect level (IC90) was put at 62 µM and the “activity against the QcrB mutant strain (in words)” value is on record as “≥ threefold lower activity”.
Take `COc1ccc(-c2cc(N)nc(-n3nc(C)cc3C)n2)cc1` [PZP-1]: in experiment [1], the Fold change is > 19 and the IC90 is > 100 µM.
On the same counts, the results for `Cc1cc(C)n(-c2nc(N)cc(-c3cccc(F)c3)n2)n1` [PZP-2] are > 13 and > 100 µM.
In experiment [1], `Cc1cc(NC2CCCCC2)nc(-n2nc(C)cc2C)n1` [PZP-3] had a Fold change of 10 and an IC90 of 46 µM.
For `CC(=O)n1nccc1-c1sc(-c2cccs2)nc1C` [TPT], in experiment [5], the Fold-change is given as 8.9, the IC90 was found to be 63 µM and the “activity against the QcrB mutant strain (in words)” value is “≥ threefold lower activity”.
